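48-hour exposure; five concentrations; linearly interpolated endpoints. GI50 marks 50% less growth. TGI marks complete inhibition of growth.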
Experiments:
Experiment in all cases: inhibition of tumour cell growth, NCI panel, 48 h
HOP-62 NSCLC = system: HOP-62 NSCLC
MALME-3M melanoma = system: MALME-3M melanoma
KM12 colon = system: KM12 colon
SW-620 colon = system: SW-620 colon
CCRF-CEM leukemia = system: CCRF-CEM leukemia
K-562 leukemia = system: K-562 leukemia
SF-539 CNS = system: SF-539 CNS
SN12C renal = system: SN12C renal
MCF7 breast = system: MCF7 breast
SNB-75 CNS = system: SNB-75 CNS

Row | Compound | GI50 (HOP-62 NSCLC) | TGI (HOP-62 NSCLC) | GI50 (MALME-3M melanoma) | TGI (MALME-3M melanoma) | GI50 (KM12 colon) | TGI (KM12 colon) | GI50 (SW-620 colon) | TGI (SW-620 colon) | GI50 (CCRF-CEM leukemia) | TGI (CCRF-CEM leukemia) | GI50 (K-562 leukemia) | TGI (K-562 leukemia) | GI50 (SF-539 CNS) | TGI (SF-539 CNS) | GI50 (SN12C renal) | TGI (SN12C renal) | GI50 (MCF7 breast) | TGI (MCF7 breast) | TGI (SNB-75 CNS) | GI50 (SNB-75 CNS)
1 | O=C1C=C(OCC=C(C(F)(F)F)C(F)(F)F)c2ccccc2C1=O | 1870 nM | 3.69 µM | 1560 nM | 3.11 µM | 1670 nM | 3.25 µM | 1920 nM | 3.91 µM | 1.17 µM | 5.22 µM | 1.97 µM | 5.42 µM | 1840 nM | 3.63 µM | 1090 nM | 2.37 µM | 1.39 µM | 3.94 µM | – | –
2 | O=C(N/C(=C\c1ccccc1O)c1nc2ccccc2[nH]1)c1ccccc1 | – | > 100 µM | – | > 100 µM | – | > 100 µM | – | > 100 µM | – | > 100 µM | – | > 100 µM | – | > 100 µM | – | > 100 µM | – | – | 36.1 µM | –
3 | NCCCNc1nc2ccccc2c2c(=O)c3cccc(Cl)c3sc12 | – | – | 1570 nM | 3 µM | – | – | – | – | – | – | – | – | 1630 nM | 3.02 µM | 1520 nM | 3.05 µM | – | – | 2.69 µM | 1340 nM
4 | CCN1C(=O)N(CC)C2C1NN=c1s/c(=C3\C(=O)N(C4CCCC4)c4ccccc43)c(=O)n12 (stereo unspecified) | 1540 nM | 14.4 µM | 1260 nM | 8.74 µM | 689 nM | > 100 µM | 551 nM | > 100 µM | 2.02 µM | 57.5 µM | 0.37 µM | > 100 µM | 484 nM | 2.4 µM | 2760 nM | > 100 µM | 0.382 µM | > 100 µM | – | –
5 | CC1C=CC(C(N)C(=O)O)O1 (stereo unspecified) | – | > 100 µM | – | > 100 µM | – | > 100 µM | – | > 100 µM | – | > 100 µM | – | > 100 µM | – | > 100 µM | – | > 100 µM | – | – | > 100 µM | –
6 | CC1=C(C(=O)Nc2ccc(F)c(Cl)c2)C(c2cccc(Oc3ccccc3)c2)NC(=S)N1 (stereo unspecified) | 14700 nM | 30.1 µM | – | – | 18800 nM | > 50 µM | 16200 nM | 44.2 µM | 17.7 µM | 47.6 µM | 10.7 µM | 31.6 µM | 18700 nM | 44 µM | 9270 nM | 17.6 µM | 12.8 µM | > 50 µM | – | –
7 | CCCCNC(=S)OCCC(C)CCCC(C)C (stereo unspecified) | – | > 100 µM | – | > 100 µM | – | > 100 µM | – | > 100 µM | – | > 100 µM | – | > 100 µM | – | > 100 µM | – | > 100 µM | – | – | > 100 µM | –
8 | CC(=O)c1ccccc1NC(=O)C(=O)C(C(=O)c1ccccc1-c1ccccc1)C1OC(=O)c2ccccc21 (stereo unspecified) | – | 44.9 µM | – | 34.3 µM | – | 34.3 µM | – | 86.5 µM | – | > 100 µM | – | > 100 µM | – | 37.2 µM | – | 43.5 µM | – | – | 51.7 µM | –
9 | NS(=O)(=O)c1ccc(NC(=O)C2C(=O)C(=O)N(c3ccc(S(N)(=O)=O)cc3)C2=O)cc1 (stereo unspecified) | – | > 100 µM | – | > 100 µM | – | – | – | > 100 µM | – | > 100 µM | – | > 100 µM | – | > 100 µM | – | > 100 µM | – | – | > 100 µM | –
10 | CCOC(=O)c1[nH]c2cc(OC)c(OC)cc2c1CN(C)C | – | – | – | > 100 µM | – | > 100 µM | – | > 100 µM | – | > 100 µM | – | > 100 µM | – | > 100 µM | – | > 100 µM | – | – | > 100 µM | –
11 | COc1cc([N+](=O)[O-])c(S(=O)(=O)O)cc1-n1nc(C(=O)Nc2ccccc2)n[n+]1-c1cc(S(=O)(=O)[O-])c([N+](=O)[O-])cc1OC | – | > 100 µM | – | > 100 µM | – | > 100 µM | – | > 100 µM | – | > 100 µM | – | > 100 µM | – | – | – | > 100 µM | – | > 100 µM | > 100 µM | –
12 | O=C1C=C2CCCC2C(C(=O)O)(C(=O)O)C1 (stereo unspecified) | – | > 100 µM | – | > 100 µM | – | > 100 µM | – | > 100 µM | – | > 100 µM | – | > 100 µM | – | > 100 µM | – | > 100 µM | – | – | > 100 µM | –
13 | Cc1ccc(N=C2N=C(N3CC(C)OC(C)C3)c3ccccc32)cc1 (stereo unspecified) | – | > 100 µM | – | 99.4 µM | – | 62.5 µM | – | > 100 µM | – | 66.8 µM | – | > 100 µM | – | 38.1 µM | – | > 100 µM | – | – | 88.5 µM | –
14 | COc1c(I)c(OC)c2c(c1I)O[C@@H]1OCC[C@H]21 | – | > 100 µM | – | 73.4 µM | – | 82.6 µM | – | > 100 µM | – | > 100 µM | – | > 100 µM | – | > 100 µM | – | > 100 µM | – | – | 82.9 µM | –
15 | COc1ccc2c(c1)/C(=C\c1c(-c3cc(OC)ccc3OC)nc3sccn13)C(=O)N2 | 1750 nM | 3.29 µM | 1380 nM | 2.97 µM | 2000 nM | 3.98 µM | – | – | 6.91 µM | – | 5.88 µM | – | – | – | – | – | – | – | – | –
16 | Cc1ccc(/C=C/C(=O)c2sc(-n3nc(-c4ccccc4)cc3-c3ccccc3)nc2C)cc1 | – | > 100 µM | – | > 100 µM | – | > 100 µM | – | > 100 µM | – | > 100 µM | – | > 100 µM | – | > 100 µM | – | > 100 µM | – | – | > 100 µM | –
17 | COc1cc2ncnc(Nc3ccc(Oc4ccnc(C)c4)c(C)c3)c2cc1NC(=O)CC1CCSS1 (stereo unspecified) | 1160 nM | 2.91 µM | – | – | – | – | 1140 nM | 2.71 µM | 0.253 µM | 1.69 µM | 0.253 µM | 1.18 µM | 1290 nM | > 10.7 µM | 1500 nM | > 50 µM | – | – | > 25.2 µM | 1410 nM
18 | O=C(Nc1cc(Cl)cc(Cl)c1)c1cccc(NC2=C(Cl)C(=O)N(Cc3ccccc3)C2=O)c1 | 37400 nM | > 100 µM | 30700 nM | 97.4 µM | 31500 nM | > 100 µM | – | – | 4.09 µM | > 100 µM | 7.89 µM | > 100 µM | – | – | 40000 nM | > 100 µM | 21.7 µM | > 100 µM | – | –
19 | CCc1cc2c(O)c(c1)Cc1cc(CC)cc(c1O)Cc1cc(CC)cc(c1O)Cc1cc(CC)cc(c1O)Cc1cc(CC)cc(c1O)Cc1cc(CC)cc(c1O)Cc1cc(CC)cc(c1O)C2 | – | > 100 µM | – | > 100 µM | – | > 100 µM | – | > 100 µM | – | > 100 µM | – | – | – | > 100 µM | – | > 100 µM | – | – | 61.4 µM | –
